# Results taken from patent US20170014487A1, “Method for treating ocular inflammation” (THE TRUSTEES OF COLUMBIA UNIVERSITY IN THE CITY OF NEW YORK, priority 2014, published 2017).
# System: ICAM-1
# Assay: Western blot of TNF-α-induced ICAM-1 expression in SV40-HCEC cells
# Type: cell-based, human
# Conditions: 1-μM secretin
# Experimental: Experiments were conducted to set up an in vitro model for dry eye syndrome, using cell cultures of immortalized human cells from the cornea or conjunctiva using the SV40-HCEC corneal cell line of SV40 virus-immortalized corneal cells (12). SV40-HCEC cells were shown using immunofluorescence of anti-oxytocin receptor antibodies to contain oxytocin receptors in the plasma membrane (FIG. 4A, oxytocin receptor fluorescence is in red [top panel]; blue represents nuclear staining with DAPI stain [bottom panel]), consistent with the results showing its presence in rodent conjunctiva and cornea. Moreover, the presence of secretin receptors in SV40HCEC cells was shown using Western blot (FIG. 4B, the presence of secretin receptor migrating at the expected size [arrow]). M: Marker, S: Sample/secretin receptor. The lower band in the sample lane represents degradation product.
# A Western blot-based assay was developed to assess for the role of oxytocin and secretin in dry eye syndrome in vitro. The expression of the […] ICAM-1 in SV40-HCEC cells was induced by adding the pro-inflammatory cytokine TNF-α [13]. In vivo, ICAM-1 acts to recruit neutrophils to sites of inflammation, and thus acts as a surrogate for inflammation in vitro.
substance,measurement,value
"secretin: neuropeptide; endocrine hormone of the glucagon family, commercially available as SecreFlo",Reduction of rate of accumulation of ICAM-1,about two-fold
